From paper PMC7901646, “Pyrrolo[2′,3′:3,4]cyclohepta[1,2-d][1,2]oxazoles, a New Class of Antimitotic Agents Active against Multiple Malignant Cell Types” (Journal of Medicinal Chemistry, 2020) come the findings set out here.

Holding throughout (format): cell-based
One assay has as its system HeLa cells. In words: Annexin-V/PI apoptosis assay. As for the experimental part:
To analyze the mode of cell death induced by compound 66 in HeLa cells, we utilized a double labeling assay of the cells with annexin-V and PI. This procedure, through a flow cytometric analysis, distinguishes four different cell populations: live cells (annexin-V^–/PI^–), early apoptotic cells (annexin-V^+/PI^–), late apoptotic cells (annexin-V^+/PI^+), and necrotic cells (annexin-V^–/PI^+).
Cell death was determined by flow cytometry of cells double stained with annexin V/FITC and PI. The Coulter Cytomics FC500 (Beckman Coulter) was used to measure the surface exposure of phosphatidylserine on apoptotic cells according to the manufacturer’s instructions (Annexin-V Fluos, Roche Diagnostics).

A further assay concerns PARP. In words: Western blot, apoptosis proteins. The following applies: HeLa, 24 h, 0.1 μM. As for the experimental part: (§1) To study in greater detail the apoptotic process induced by 66, we evaluated the expression of the cleaved fragment of poly(ADP)ribose polymerase (PARP), a common marker of apoptosis,[66] by Western blot analysis. HeLa cells were treated with compound 66 at 0.1 or 0.5 μM for 24 or 48 h. The cleavage fragment of PARP appeared at 24 h after beginning treatment with only 0.1 μM 66. The expression of two antiapoptotic proteins, Mcl-1 and XIAP, was also studied. Mcl-1, a member of the Bcl-2 family, is highly expressed in many types of tumors and takes part in the apoptotic response to multiple stimuli. […] Similarly, expression of Xiap, a member of the family of inhibitors of apoptosis proteins, was reduced (at 24 h) and diappeared (at 48 h) after HeLa cell treatment with 66 (Figure 9). The functions of this protein are to inhibit the activity of caspase-3, caspase-7, and caspase-9 through a direct interaction with these enzymes. Following this interaction, the entire apoptotic process is inhibited.[69]
(§2) HeLa cells were incubated in the presence of the test compound and, after different times, were collected, centrifuged, and washed two times with ice cold PBS. The pellet was resuspended in lysis buffer. After the cells were lysed on ice for 30 min, lysates were centrifuged at 15 000g at 4 °C for 10 min. The protein concentration in the supernatant was determined using the BCA protein assay reagents (Pierce, Italy). Equal amounts of protein (10 μg) were resolved using sodium dodecyl sulfate–polyacrylamide gel electrophoresis (Criterion Precast, BioRad, Italy) and transferred to a PVDF Hybond-P membrane (GE Healthcare). Membranes were blocked with a bovine serum albumin solution (5% in Tween PBS 1×), and the membranes were gently rotated overnight at 4 °C in the albumin solution. Membranes were then incubated with primary antibodies against PARP cleaved fragment, cdc25c, cyclin B, p-cdc2^Tyr15, XIAP, and Mcl-1 (all from Cell Signaling) or GAPDH (Sigma-Aldrich) for 2 h at room temperature. Membranes were next incubated with peroxidase labeled secondary antibodies for 1 h. All membranes were visualized using ECL Select (GE Healthcare), and images were acquired using an Uvitec-Alliance imaging system (Uvitec, Cambridge, U.K.). To ensure equal protein loading, each membrane was stripped and reprobed with anti-GAPDH antibody. To obtain relative quantitative data, ImageJ software (NIH, USA) was used for scanning densitometry analysis of Western blots.
(In general: In western blotting, separated proteins are transferred to a membrane and probed.)

The test system of the next assay is Mcl-1. The assay is described as follows: Western blot, apoptosis proteins. Conditions: HeLa, 0.1 or 0.5 μM, 24 or 48 h. As for the experimental part: as §1, §2
In another assay the test system is XIAP. In words: Western blot, apoptosis proteins. The following applies: HeLa. How it is done: as §1, §2

As to `CCOC(=O)c1cc2c(n1Cc1cc(OC)cc(OC)c1)-c1oncc1CCC2` [Compound 66, Ethyl 9-(3,5-Dimethoxybenzyl)-4,5,6,9-tetrahydropyrrolo[2′,3′:3,4]cyclohepta[1,2-d][1,2]oxazole-8-carboxylate], the apoptotic cells entry in the assay with HeLa cells (24 h, 0.5 μM) was “significant increase”. Moreover, the necrotic cells entry in the assay on HeLa cells (48 h) is given as “substantial increase”. Besides, the “cleavage fragment of PARP” value in the assay on PARP is on record as “appeared”. Further, the Mcl-1 levels result with Mcl-1 is reported as “reduction”. For the same compound, the “expression of Xiap” value with XIAP (24 h) is on record as “reduced”; in the assay on XIAP (48 h) it was “diappeared”.
